Columns and labels:
Assay type in all cases: biochemical
[1] = biological target: T1, ZAP-70 (Homo sapiens, UniProt P43403); experiment: Zap70 enzymatic assay (Caliper LifeSciences technology)
T1 construct: purchased BPS Bioscience, CA, USA
T1 sequence (P43403 1-619): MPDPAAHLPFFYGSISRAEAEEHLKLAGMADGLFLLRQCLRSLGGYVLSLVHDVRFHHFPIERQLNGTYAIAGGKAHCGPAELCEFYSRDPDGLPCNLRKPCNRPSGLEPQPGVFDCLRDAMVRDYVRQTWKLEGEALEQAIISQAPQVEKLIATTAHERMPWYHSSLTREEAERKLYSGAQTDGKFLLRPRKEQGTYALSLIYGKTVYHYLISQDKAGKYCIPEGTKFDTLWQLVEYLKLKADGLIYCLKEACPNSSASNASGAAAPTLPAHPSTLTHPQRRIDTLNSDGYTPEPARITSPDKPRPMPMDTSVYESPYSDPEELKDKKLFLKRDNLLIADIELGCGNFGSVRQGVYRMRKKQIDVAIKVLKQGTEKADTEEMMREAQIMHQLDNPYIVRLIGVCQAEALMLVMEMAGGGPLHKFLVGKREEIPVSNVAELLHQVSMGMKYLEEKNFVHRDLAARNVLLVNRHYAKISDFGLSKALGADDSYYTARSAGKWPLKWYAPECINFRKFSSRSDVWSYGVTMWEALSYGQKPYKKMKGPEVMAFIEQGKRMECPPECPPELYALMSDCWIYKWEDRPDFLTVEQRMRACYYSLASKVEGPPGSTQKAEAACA
Experimental: (§1) Enzymatic Assays Using the Caliper LifeSciences Technology
(§2) The assays described here are performed on the Caliper Life Sciences LC3000 system This technology provides data on enzyme activity via measurement of the relative amounts of phosphorylated or unphosphorylated fluorescently labelled substrate peptide at the end of an enzymatic reaction. These different states of peptide are resolved by applying a potential difference across the sample. The presence of the charged phosphate group on the product (as opposed to the substrate) causes a different peptide mobility between the two peptides. This is visualized by excitation of the fluorescent label on the substrate and product peptides and represented as peaks within the analysis software.
(§3) In order to measure inhibitor activity of kinase inhibitors on this technology, a TTP Mosquito liquid handling instrument is used to place 0.25 ul of the appropriate concentration of inhibitor in 100% DMSO (for a dose response curve calculation) into each well of a 384-well plate. To this reaction components are added to a final volume of 25 ul. The table below indicates the sequences and concentrations for the assays described in this report. Standard components are 1 mM DTT (Sigma, D0632), 1 mM MgCl2 (Sigma, M1028), 100 mM HEPES pH 7.5 (Calbiochem, 391338), 0.015% Brij-35 (Sigma, B4184).
(§4) The reaction is incubated for 90 min at 25 C, and then stopped by the addition of 70 ul of Stop buffer (100 mM HEPES pH 7.5, 0.015% Brij-35, 10 mM EDTA (Sigma, E7889)).
(§5) The plate is read on a Caliper LC 3000 in an Off-Chip mobility shift assay format, on a 12-sipper chip. Unphosphorylated substrate and phosphorylated product peptide resolve as separate peaks allowing direct measurement of percentage of conversion of substrate to product. The percent conversion can be plotted against concentration of inhibitor to produce a sigmoidal dose response curve, from which an IC50 can be calculated using GeneData Condoseo or a similar product. Cellular activity assays

[2] = biological target: T2, Syk (Homo sapiens, UniProt P43405); experiment: Syk enzyme assay (flash plate / Caliper mobility shift)
T2 construct: purchased BPS Bioscience, CA, USA
Experimental: The kinase assay is performed either as 384-well Flashplate assay (for e.g. Topcount measurement) or as 384-well Image-Flashplate assay (for LEADseeker measurement).
2.5 nM SYK, 400 nM Biotin-Aha-Aha-[…] and 10 μM ATP (spiked with 0.3 μCi 33P-ATP/well) are incubated in a total volume of 50 μl (60 mM Hepes, 10 mM MgCl2, 1.2 mM Dithiothreitol, 0.02% Brij35, 0.1% BSA, pH 7.5) with or without test compound for 1 hours at 30° C. The reaction is stopped with 25 μl 200 mM EDTA. After 30 Min at 30° C. the liquid is removed and each well washed thrice with 100 μl 0.9% sodium chloride solution. Non-specific reaction is determined in presence of 0.1 μM Staurosporine. Radioactivity is measured with Topcount (when using Flashplates) or with LEADseeker (when using Image-Flashplates) respectively. Results (e.g. IC50-values) are calculated with program tools provided by the IT-department (e.g. Symyx Assay Explorer, Genedata Screener).
as §1, §2, §3, §4, §5

[3] = biological target: T3, KDR (Homo sapiens, UniProt P35968); experiment: KDR enzymatic assay (Caliper LifeSciences technology)
T3 construct: purchased BPS Bioscience, CA, USA
T3 sequence (P35968 20-1356): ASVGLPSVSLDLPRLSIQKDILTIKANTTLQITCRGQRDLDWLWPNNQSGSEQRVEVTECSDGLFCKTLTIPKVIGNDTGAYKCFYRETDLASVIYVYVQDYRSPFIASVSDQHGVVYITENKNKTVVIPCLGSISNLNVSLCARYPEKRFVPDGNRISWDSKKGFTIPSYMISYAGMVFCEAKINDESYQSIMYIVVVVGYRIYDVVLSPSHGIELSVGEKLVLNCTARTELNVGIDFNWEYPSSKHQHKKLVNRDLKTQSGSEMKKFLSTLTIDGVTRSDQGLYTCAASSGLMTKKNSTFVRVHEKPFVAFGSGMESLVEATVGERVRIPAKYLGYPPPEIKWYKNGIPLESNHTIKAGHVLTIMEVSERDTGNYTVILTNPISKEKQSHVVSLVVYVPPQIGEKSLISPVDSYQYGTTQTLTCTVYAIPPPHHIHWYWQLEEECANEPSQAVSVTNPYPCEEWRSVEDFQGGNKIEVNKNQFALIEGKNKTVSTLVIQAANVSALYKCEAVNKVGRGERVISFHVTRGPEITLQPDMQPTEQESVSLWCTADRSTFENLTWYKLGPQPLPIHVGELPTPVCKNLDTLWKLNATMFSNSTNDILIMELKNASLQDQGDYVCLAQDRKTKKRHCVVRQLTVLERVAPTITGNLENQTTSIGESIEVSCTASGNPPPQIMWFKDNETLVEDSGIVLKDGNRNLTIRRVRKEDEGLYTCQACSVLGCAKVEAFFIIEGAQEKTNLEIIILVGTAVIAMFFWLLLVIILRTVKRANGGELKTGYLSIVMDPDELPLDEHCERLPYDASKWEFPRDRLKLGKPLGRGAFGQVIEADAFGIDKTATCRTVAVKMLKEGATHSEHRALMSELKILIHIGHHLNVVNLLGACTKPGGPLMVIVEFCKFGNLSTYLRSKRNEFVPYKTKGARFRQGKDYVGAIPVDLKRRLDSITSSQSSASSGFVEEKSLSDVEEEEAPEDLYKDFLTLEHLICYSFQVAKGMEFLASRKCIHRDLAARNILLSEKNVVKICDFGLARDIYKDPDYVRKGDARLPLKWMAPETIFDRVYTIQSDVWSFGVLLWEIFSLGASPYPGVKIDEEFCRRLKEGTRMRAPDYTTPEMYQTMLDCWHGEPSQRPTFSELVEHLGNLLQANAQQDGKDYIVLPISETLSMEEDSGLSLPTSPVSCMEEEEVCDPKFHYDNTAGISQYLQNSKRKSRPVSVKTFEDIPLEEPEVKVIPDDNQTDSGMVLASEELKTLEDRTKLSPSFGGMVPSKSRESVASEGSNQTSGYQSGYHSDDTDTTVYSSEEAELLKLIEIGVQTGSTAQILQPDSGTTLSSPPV
Experimental: as §1, §2, §3, §4, §5

IC50 [1] [µM] | IC50 [2] [µM] | IC50 [3] [µM] | Structure (SMILES)
3 to 50 |  |  | c1ccc(Cn2ncc3ccc(Nc4nccn5nc(Nc6ccccc6)nc45)cc32)cc1 [Example C75, N^8-(1-Benzyl-1H-indazol-6-yl)-N^2-phenyl-[1,2,4]triazolo[1,5-a]pyrazine-2,8-diamine]
3 to 50 |  |  | Cc1cccc(Nc2nccn3nc(Nc4ccc5cnn(Cc6ccccc6)c5c4)nc23)c1 [Example C84, N^2-(1-Benzyl-1H-indazol-6-yl)-N^8-m-tolyl-[1,2,4]triazolo[1,5-a]pyrazine-2,8-diamine]
 | < 0.3 |  | COc1cc(Nc2nc3c(-c4cc(OC)cc(OC)c4)nccn3n2)cc(OC)c1 [Example C16, (3,5-Dimethoxy-phenyl)-[8-(3,5-dimethoxy-phenyl)-[1,2,4]triazolo[1,5-a]pyrazin-2-yl]-amine]
 | 3 to 50 | 3 to 50 | Cc1cccc(Nc2nc3c(NC4CCCCC4N)nccn3n2)c1 (centres unmarked) [Example C57, N^8-(2-Amino-cyclohexyl)-N^2-m-tolyl-[1,2,4]triazolo[1,5-a]pyrazine-2,8-diamine]
 | 3 to 50 | 3 to 50 | NCCNc1nccn2nc(Nc3ccccc3)nc12 [Example C49, N^8-(2-Amino-ethyl)-N^2-phenyl-[1,2,4]triazolo[1,5-a]pyrazine-2,8-diamine]
 | 0.3 to 3 | 3 to 50 | COc1cc(OC)cc(-c2nccn3nc(Nc4cccc(C)c4)nc23)c1 [Example C17, [8-(3,5-Dimethoxy-phenyl)-[1,2,4]triazolo[1,5-a]pyrazin-2-yl]-m-tolyl-amine]
 | 0.3 to 3 | 3 to 50 | COc1cc(OC)cc(-c2nccn3nc(Nc4cc(C)cc(C)c4)nc23)c1 [Example C15, [8-(3,5-Dimethoxy-phenyl)-[1,2,4]triazolo[1,5-a]pyrazin-2-yl]-(3,5-dimethyl-phenyl)-amine]
3 to 50 |  |  | Cc1cc(C)cc(Nc2nc3c(Nc4ccc5c(n4)NC(=O)C(C)(C)O5)nccn3n2)c1 [Example C60, 6-[2-(3,5-Dimethyl-phenylamino)-[1,2,4]triazolo[1,5-a]pyrazin-8-ylamino]-2,2-dimethyl-4H-pyrido[3,2-b][1,4]oxazin-3-one]
 | 0.3 to 3 |  | Cc1c(N)cccc1-c1nccn2nc(Nc3ccc(N4CCOCC4)cc3)nc12 [Example C293, [8-(3-Amino-2-methyl-phenyl)-[1,2,4]triazolo[1,5-a]pyrazin-2-yl]-(4-morpholin-4-yl-phenyl)-amine]
 | 0.3 to 3 | 0.3 to 3 | c1ccc(Nc2nc3c(-c4ccccc4)nccn3n2)cc1 [Example C10, Phenyl-(8-phenyl-[1,2,4]triazolo[1,5-a]pyrazin-2-yl)-amine]
 | 3 to 50 | 3 to 50 | COCCCNc1nccn2nc(Nc3ccccc3)nc12 [Example C53, N^8-(3-Methoxy-propyl)-N^2-phenyl-[1,2,4]triazolo[1,5-a]pyrazine-2,8-diamine]
 | 3 to 50 | 3 to 50 | Cc1cc(C)cc(Nc2nc3c(NC4CCCCC4N)nccn3n2)c1 (centres unmarked) [Example C56, N^8-(2-Amino-cyclohexyl)-N^2-(3,5-dimethyl-phenyl)-[1,2,4]triazolo[1,5-a]pyrazine-2,8-diamine]
 | 0.3 to 3 |  | COc1ccc(Nc2nc3c(-c4cccc(CN)c4)nccn3n2)cn1 [Example C254, [8-(3-Aminomethyl-phenyl)-[1,2,4]triazolo[1,5-a]pyrazin-2-yl]-(6-methoxy-pyridin-3-yl)-amine]
 | 3 to 50 | 3 to 50 | Cc1cccc(Nc2nc3c(NCCN)nccn3n2)c1 [Example C45, N^8-(2-Amino-ethyl)-N^2-m-tolyl-[1,2,4]triazolo[1,5-a]pyrazine-2,8-diamine]
 | 3 to 50 | 3 to 50 | COCCCNc1nccn2nc(Nc3cc(C)cc(C)c3)nc12 [Example C37, N^2-(3,5-Dimethyl-phenyl)-N^8-(3-methoxy-propyl)-[1,2,4]triazolo[1,5-a]pyrazine-2,8-diamine]
0.3 to 3 |  |  | c1ccc(Cn2ncc3ccc(Nc4nc5c(Nc6ccccc6)nccn5n4)cc32)cc1 [Example C85, N^2-(1-Benzyl-1H-indazol-6-yl)-N^8-phenyl-[1,2,4]triazolo[1,5-a]pyrazine-2,8-diamine]
 | 3 to 50 |  | Cn1ccnc1Sc1ccc(Nc2nccn3nc(Nc4cccc(C(F)(F)F)c4)nc23)cc1Cl [Example C68, N^8-[3-Chloro-4-(1-methyl-1H-imidazol-2-ylsulfanyl)-phenyl]-N^2-(3-trifluoromethyl-phenyl)-[1,2,4]triazolo[1,5-a]pyrazine-2,8-diamine]
 | 0.3 to 3 |  | O=C1Nc2cc(Nc3nc4c(Cl)nccn4n3)ccc2OC1(F)F [Example B7, 6-(8-Chloro-[1,2,4]triazolo[1,5-a]pyrazin-2-ylamino)-2,2-difluoro-4H-benzo[1,4]oxazin-3-one]
 | 0.3 to 3 |  | COc1ccc(Nc2nc3c(-c4cnc5ccccc5c4)nccn3n2)cn1 [Example C262, (6-Methoxy-pyridin-3-yl)-(8-quinolin-3-yl-[1,2,4]triazolo[1,5-a]pyrazin-2-yl)-amine]
 | 3 to 50 |  | FC(F)(F)c1cccc(Nc2nc3c(-c4ccc(N5CCOCC5)cc4)nccn3n2)c1 [Example C12, [8-(4-Morpholin-4-yl-phenyl)-[1,2,4]triazolo[1,5-a]pyrazin-2-yl]-(3-trifluoromethyl-phenyl)-amine]
 | 0.3 to 3 | 3 to 50 | FC(F)(F)c1cccc(Nc2nc3c(-c4ccccc4)nccn3n2)c1 [Example C9, (8-Phenyl-[1,2,4]triazolo[1,5-a]pyrazin-2-yl)-(3-trifluoromethyl-phenyl)-amine]
 | 0.3 to 3 |  | COc1ccc(Nc2nc3c(-c4cccc(NS(C)(=O)=O)c4)nccn3n2)cn1 [Example C274, N-{3-[2-(6-Methoxy-pyridin-3-ylamino)-[1,2,4]triazolo[1,5-a]pyrazin-8-yl]-phenyl}-methanesulfonamide]
 | 0.3 to 3 |  | Cc1cc(C)cc(Nc2nc3c(-c4ccccc4)nccn3n2)c1 [Example C7, (3,5-Dimethyl-phenyl)-(8-phenyl-[1,2,4]triazolo[1,5-a]pyrazin-2-yl)-amine]
 | 3 to 50 |  | Clc1nccn2nc(Nc3ccc4cnn(Cc5ccccc5)c4c3)nc12 [Example B9, (1-Benzyl-1H-indazol-6-yl)-(8-chloro-[1,2,4]triazolo[1,5-a]pyrazin-2-yl)-amine]
 | 3 to 50 |  | COc1cc(Nc2nc3c(NC4CCCCC4N)nccn3n2)cc(OC)c1 (centres unmarked) [Example C54, N^8-(2-Amino-cyclohexyl)-N^2-(3,5-dimethoxy-phenyl)-[1,2,4]triazolo[1,5-a]pyrazine-2,8-diamine]
 | 3 to 50 |  | Cc1cccc(Nc2nc3c(Nc4ccc5c(c4)NC(=O)C(F)(F)O5)nccn3n2)c1 [Example C71, 2,2-Difluoro-6-(2-m-tolylamino-[1,2,4]triazolo[1,5-a]pyrazin-8-ylamino)-4H-benzo[1,4]oxazin-3-one]
 | 3 to 50 |  | Cc1cccc(Nc2nc3c(Nc4cccc(C(F)(F)F)c4)nccn3n2)c1 [Example C73, N^2-m-Tolyl-N^8-(3-trifluoromethyl-phenyl)-[1,2,4]triazolo[1,5-a]pyrazine-2,8-diamine]
 | < 0.3 |  | COc1cc(Nc2nc3c(-c4cnc5ccccc5c4)nccn3n2)cc(OC)c1 [Example C260, (3,5-Dimethoxy-phenyl)-(8-quinolin-3-yl-[1,2,4]triazolo[1,5-a]pyrazin-2-yl)-amine]

From patent US9023851B2 (Merck Patent GmbH, priority 2010, dated 2015)
